Experimental data: US10670605B2, “Cysteine reactive probes and uses thereof” (The Scripps Research Institute, priority 2015, dated 2020)

Legend:
Assay in all cases: Competitive isoTOP-ABPP, cell lysates;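 on isoTOP-ABPP reactivity profile ratio, O00170 C122: Heavy/light ratio DMSO over fragment-treated so higher means more cysteine engagement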;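 on isoTOP-ABPP reactivity profile ratio, P63244 C182: Heavy/light ratio DMSO over fragment-treated so higher means more cysteine engagement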
Type in all cases: binding
[1] = biological target: T1, AIP C122 (O00170) (Homo sapiens, UniProt O00170); conditions: for R value (DMSO/fragment): 500 μM;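 on isoTOP-ABPP reactivity profile ratio, O00170 C122: Heavy/light ratio DMSO over fragment-treated so higher means more cysteine engagement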
T1 sequence (O00170 1-330): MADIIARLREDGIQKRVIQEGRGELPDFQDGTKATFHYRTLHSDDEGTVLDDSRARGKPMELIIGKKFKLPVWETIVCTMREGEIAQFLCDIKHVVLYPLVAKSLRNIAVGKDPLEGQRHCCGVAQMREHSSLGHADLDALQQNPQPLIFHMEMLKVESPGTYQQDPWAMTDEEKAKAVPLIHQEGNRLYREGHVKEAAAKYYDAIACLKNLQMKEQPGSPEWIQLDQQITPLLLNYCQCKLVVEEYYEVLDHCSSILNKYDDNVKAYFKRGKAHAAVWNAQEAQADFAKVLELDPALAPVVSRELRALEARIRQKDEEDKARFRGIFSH

[2] = biological target: GNB2L1 C182 (P63244) (Homo sapiens, UniProt P63244); conditions: for R value (DMSO/fragment): 500 μM; for isoTOP-ABPP reactivity profile ratio, P63244_C182: 500 μm;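 on isoTOP-ABPP reactivity profile ratio, P63244 C182: Heavy/light ratio DMSO over fragment-treated so higher means more cysteine engagement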
[3] = biological target: GSTP1 C48 (P09211) (Homo sapiens, UniProt P09211); conditions: for R value (DMSO/fragment): 500 μM; for isoTOP-ABPP reactivity profile ratio, P09211_C48: 500 μm
[4] = biological target: T2, PDIA6 C190 (Q15084) (Homo sapiens, UniProt Q15084); conditions: for R value (DMSO/fragment): 500 μM; for isoTOP-ABPP reactivity profile ratio, Q15084_C190: 500 μm
T2 sequence (Q15084 20-440): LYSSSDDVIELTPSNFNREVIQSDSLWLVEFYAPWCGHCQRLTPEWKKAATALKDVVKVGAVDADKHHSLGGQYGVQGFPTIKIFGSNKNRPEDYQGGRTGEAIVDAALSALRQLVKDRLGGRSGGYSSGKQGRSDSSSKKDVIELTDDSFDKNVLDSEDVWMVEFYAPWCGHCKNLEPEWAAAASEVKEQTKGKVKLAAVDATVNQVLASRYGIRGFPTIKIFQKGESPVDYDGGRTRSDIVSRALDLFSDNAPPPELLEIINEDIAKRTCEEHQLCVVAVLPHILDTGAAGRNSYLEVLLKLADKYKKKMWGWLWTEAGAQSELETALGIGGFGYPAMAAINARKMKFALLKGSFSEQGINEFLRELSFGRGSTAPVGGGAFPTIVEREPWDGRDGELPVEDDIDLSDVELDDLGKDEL

[5] = biological target: PRMT1 C109 (Q99873) (Homo sapiens, UniProt Q99873); conditions: for R value (DMSO/fragment): 500 μM; for isoTOP-ABPP reactivity profile ratio, Q99873_C109: 500 μm
[6] = biological target: SAMHD1 C522 (Q9Y3Z3) (Homo sapiens, UniProt Q9Y3Z3); conditions: for R value (DMSO/fragment): 500 μM
[7] = biological target: SMARCC2 C145 (Q8TAQ2) (Homo sapiens, UniProt Q8TAQ2); conditions: for R value (DMSO/fragment): 500 μM
[8] = biological target: UBE2L3 C86 (P68036) (Homo sapiens, UniProt P68036); conditions: for R value (DMSO/fragment): 500 μM; for isoTOP-ABPP reactivity profile ratio, P68036_C86: 500 μm
[9] = biological target: T3, UCHL3 C95 (P15374) (Homo sapiens, UniProt P15374); conditions: for R value (DMSO/fragment): 500 μM
T3 sequence (P15374 1-230): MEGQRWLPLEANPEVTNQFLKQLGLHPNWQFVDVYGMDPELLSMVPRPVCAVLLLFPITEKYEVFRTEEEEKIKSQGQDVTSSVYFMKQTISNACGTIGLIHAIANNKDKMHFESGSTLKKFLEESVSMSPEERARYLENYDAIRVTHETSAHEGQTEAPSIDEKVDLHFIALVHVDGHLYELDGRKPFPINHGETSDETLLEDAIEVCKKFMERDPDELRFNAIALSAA

[10] = biological target: ZNF217 C286 (O75362) (Homo sapiens, UniProt O75362); conditions: for R value (DMSO/fragment): 500 μM

SMILES | R value (DMSO/fragment) ([1]; in vitro, MDA-MB-231) | R value (DMSO/fragment) ([1]; invitro, ramos) | R value (DMSO/fragment) ([2]; in vitro, MDA-MB-231) | R value (DMSO/fragment) ([2]; invitro, ramos) | R value (DMSO/fragment) ([3]; in vitro, MDA-MB-231) | R value (DMSO/fragment) ([3]; invitro, ramos) | R value (DMSO/fragment) ([4]; invitro, ramos) | R value (DMSO/fragment) ([5]; in vitro, MDA-MB-231) | R value (DMSO/fragment) ([5]; invitro, ramos) | R value (DMSO/fragment) ([7]; in vitro, MDA-MB-231) | R value (DMSO/fragment) ([7]; invitro, ramos) | R value (DMSO/fragment) ([8]; in vitro, MDA-MB-231) | R value (DMSO/fragment) ([8]; invitro, ramos) | R value (DMSO/fragment) ([9]; invitro, ramos) | R value (DMSO/fragment) ([10]; in vitro, MDA-MB-231) | also measured
O=C(CCl)Nc1cc(C(F)(F)F)cc(C(F)(F)F)c1 [compound 3] | 7.0 | 3.1 | 20.0 | 4.7 | 2.9 | 1.7 | 13.1 | 1.3 | 1.8 | 9.7 | 6.6 | 1.2 | 3.0 | 1.4 | 1.4 | R value (DMSO/fragment) ([4]; in vitro, MDA-MB-231): 19.9; R value (DMSO/fragment) ([6]; in vitro, MDA-MB-231): 2.6; R value (DMSO/fragment) ([9]; in vitro, MDA-MB-231): 1.7
COc1ccc2c(c1)CCCN2C(=O)CCl [compound 2] | 12.5 | 6.7 | 1.2 | 1.2 | 3.1 | 1.6 | 15.4 | 3.1 | 12.6 | 8.5 | 14.0 | 2.8 | 2.5 | 1.8 | 20.0 | blockade of IA-alkyne labeling of C109 of PRMT1 ([5]; competitive isoTOP-ABPP): blocking IA-alkyne labeling; R value (DMSO/fragment) ([6]; invitro, ramos): 4.0; R value (DMSO/fragment) ([10]; invitro, ramos): 20.0
C=CC(=O)N1CCC(Cc2ccccc2)CC1 [compound 53] |  |  |  |  |  |  |  |  |  |  |  |  |  |  |  | isoTOP-ABPP reactivity profile ratio, O00170_C122 ([1]; 500 μm, in-vitro_ramos): 0.9; isoTOP-ABPP reactivity profile ratio, P63244_C182 ([2]; in-vitro_ramos): 0.8; isoTOP-ABPP reactivity profile ratio, P63244_C182 ([2]; in-vitro_ramos_231): 0.9; isoTOP-ABPP reactivity profile ratio, P09211_C48 ([3]; in-vitro_ramos): 1.2; isoTOP-ABPP reactivity profile ratio, P09211_C48 ([3]; in-vitro_ramos_231): 2.3; isoTOP-ABPP reactivity profile ratio, Q15084_C190 ([4]; in-vitro_ramos): 1.0; isoTOP-ABPP reactivity profile ratio, Q15084_C190 ([4]; in-vitro_ramos_231): 1.0; isoTOP-ABPP reactivity profile ratio, Q99873_C109 ([5]; in-vitro_ramos): 1.1; isoTOP-ABPP reactivity profile ratio, Q99873_C109 ([5]; in-vitro_ramos_231): 0.9; isoTOP-ABPP reactivity profile ratio, Q9Y3Z3_C522 ([6]; 500 μm, in-vitro_ramos): 0.7; isoTOP-ABPP reactivity profile ratio, Q8TAQ2_C145 ([7]; 500 μm, in-vitro_ramos): 1.2; isoTOP-ABPP reactivity profile ratio, P68036_C86 ([8]; in-vitro_ramos): 1.0; isoTOP-ABPP reactivity profile ratio, P68036_C86 ([8]; in-vitro_ramos_231): 1.0; isoTOP-ABPP reactivity profile ratio, P15374_C95 ([9]; 500 μm, in-vitro_ramos): 0.7; isoTOP-ABPP reactivity profile ratio, O75362_C286 ([10]; 500 μm, in-vitro_ramos_231): 1.1
